According to patent publication EP0571928A1, “Acyclic Tocotrienol analogs in the treatment of hypercholesterolemia and hyperlipidemia” (Bristol-Myers Squibb Company, priority 1992, dated 1993):

Columns and labels:
[1] = system: cholesterol biosynthesis in HepG2 cells; assay: HepG2 cell culture model - 14C-acetate incorporation assay (cholesterol synthesis); type: cell-based; details: 3-4 hours incubation, 2-14C-acetate incorporation into digitonin-precipitable sterols, vs. vehicle controls; for inhibition at 10 µM: Homo sapiens, read-out: Sterol Biosynthesis % Inhibition 10µM
Description: HepG2 Cell Culture Model - 14C-Acetate Incorporation Assay
After 16 hours in LDS containing media, test compounds were added in dimethylsulfoxide vehicle (0.5% v/v final conc.) for an incubation period of 3-4 hours. Cholesterol synthesis was then directly determined by 2-14C-acetate (1.8 mCi/mmol, 0.5 µCi/ml) incorporation for 30 to 60 minutes (previously shown to be time-linear) into total digitonin-precipitable sterols. […] Percent inhibition was calculated from the average of duplicates vs. triplicate vehicle controls conducted simultaneously.

[2] = system: Normocholesterolemic Chickens; assay: In vivo evaluation in normocholesterolemic chickens - serum cholesterol pools; details: 6-week old male chickens, 50 ppm in diet for four weeks; for Total Cholesterol: serum
Description: (§1) In Vivo Biological Evaluation in Normocholesterolemic Chickens
(§2) Newborn male chicks (10 for each group) were raised on a standard corn-soybean based control diet for two weeks and then switched to either control or experimental diets for four weeks. Drug treatment consisted of the addition of test compounds to the corn-soybean-based diet at a concentration of 50 ppm. At the end of the feeding period, all the birds were fasted (36 hours) and refed (48 hours) to induce cholesterolgenic enzymes prior to sacrifice. The specific activity of HMGR, total serum cholesterol levels, LDL cholesterol and HDL cholesterol pools were determined (Table 6).

HMG-CoA reductase = assay: HepG2 cell culture model - HMG-CoA reductase suppression assay; type: cell-based; details: HepG2 cells, 4 hours of incubation at 37°, decrease in specific activity vs. vehicle controls
Description: HepG2 Cell Culture Model - HMG-CoA Reductase Suppression Assay
HMG-CoA reductase suppression in HepG2 cells was conducted by growing cells in RPMT-1640 plus 10% FBS on 100 mm plates, and when cells reached approximately 75% confluency, inducing with LDS (as described above) for 16 hours prior to assays. Compounds were added using dimethylsulfoxide vehicle (0.5% v/v, final) and after 4 hours of incubation at 37°, cells were harvested by scraping. Cell pellets were rinsed and lysed by sonication in 1.7 ml cold 50 mM imidazole-HCl, pH 7.2, 50 mM NaCl, 10 mM EDTA, 10 mM EGTA, 5mM DTT, and 40 µM leupeptin). Lysates were centrifuged at 150 x g and the supernatant was centrifuged at 100,000 x g in a Beckman airfuge to isolate the post-nuclear total membrane fraction. The membranes were resuspended in 50 mM imidazole-HCl, pH 7.2, 250 mM NaCl, 5 mM DTT, and 20 µM leupeptin and used for the assay of HMG-CoA reductase activity by the radiochemical procedure as described previously by Parker et al., J. Biol. Chem., 264: 4877-4887, (1989). Values were normalized for protein content by the Lowry method as cited previously (ibid). HMG-CoA reductase percent suppression was calculated as the decrease in specific activity of HMG-CoA reductase for treated cells vs. controls receiving vehicle. Averages of duplicate cell determinations assayed in duplicate were taken.

HMGR = assay: In vivo evaluation in normocholesterolemic chickens - specific activity of HMGR; details: 6-week old male chickens, 50 ppm in diet for four weeks
Description: as §1, §2

Row | Compound | inhibition at 10 µM [1] [%] | HDL Cholesterol [2] | LDL Cholesterol [2] | Total Cholesterol [2] | HMG-CoA Reductase Suppression % 10µM (HMG-CoA reductase) [%] | HMGR (HMGR) | Sterol Biosynthesis % Inhibition 10µM [1] [%]
1 | CC(C)=CCC/C(C)=C/CC/C(C)=C/CCCOc1c(C)cc(O)cc1C [Example 12, 3,5-Dimethyl-4-[(5,9,13-Trimethyl-4(E), 8(E), 12-tetradecatrienyl)oxy] phenol] | 70 | 70 % of Control | 50 % of Control | 67 % of Control | 35 | – | –
2 | CC(C)=CCC/C(C)=C/CC/C(C)=C/CCCOc1ccc(NS(C)(=O)=O)cc1 [Example 25, N-[4-[(5,9,13-Trimethyl-4(E), 8(E),12-tetradecatrienyl)oxy]phenyl]methanesulfonamide] | 77 | 91 % of Control | 45 % of Control | 72 % of Control | 9 | 86 % of Control | –
3 | CC(C)=CCC/C(C)=C/CC/C(C)=C/CCCSc1ccc(O)cc1 [Example 30, 4-[(5,9,13-Trimethyl-4(E), 8(E),12-tetradecatrienyl)thio]phenol] | 68 | – | – | – | 29 | – | –
4 | γ-tocotrienol [reference compound] | – | 91 % of Control | 44 % of Control | 75 % of Control | 63 | 82 % of Control | 69
